Earlier results, collected in paper PMC10368966, “Safety and efficacy of AK0529 in respiratory syncytial virus‐infected infant patients: A phase 2 proof‐of‐concept trial” (Influenza and Other Respiratory Viruses, 2023).

Experiments:
SARS-CoV-2 [1] = test system: SARS-CoV-2; parameters: method as in PMID 32423584; settings: patients with severe COVID-19 ref 18; cited from earlier work
SARS-CoV-2 [2] = test system: SARS-CoV-2; parameters: method as in PMID 32423584; settings: cell cultures ref 18; cited from earlier work
RSV = test system: RSV; parameters: method as in PMID 32201897; settings: cited from earlier work

Row | Structure (SMILES) | effect on viral load (SARS-CoV-2 [1]) | time to clinical improvement (SARS-CoV-2 [1]) | inhibition of SARS-CoV-2 virus replication (SARS-CoV-2 [2]) | length of hospital stay or time to clinical stability (RSV) | reduction in RSV viral load vs placebo (RSV)
1 | CCC(CC)COC(=O)[C@H](C)N[P@](=O)(OC[C@H]1O[C@@](C#N)(c2ccc3c(N)ncnn23)[C@H](O)[C@@H]1O)Oc1ccccc1 [Remdesivir] | no effect | numerically shorter | potent inhibitor |  | 
2 | CS(=O)(=O)CCCn1c(Cn2c(=O)n(CC(F)(F)F)c3ccncc32)cc2cc(Cl)ccc21 [JNJ‐8678] |  |  |  | no improvements | greater reduction in RSV viral load than with placebo
